SMILES strings stand for the structures.

One assay has as its target T1, wild type FGFR-4 (Homo sapiens, UniProt P22455).
T1 construct: purchased Carna Biosciences, Inc
Nature of the assay: FGFR-4 wild type assay at Km (Caliper mobility shift). Format: biochemical. The conditions noted are these: for Ratio FGFR1/FGFR4: [IC50 for FGFR1]/[IC50 for FGFR4]; for IC50: 400 uM ATP, 25 C, 90 minutes, read-out: FGFR4 IC50. The procedure:
(§1) In order to assess the activity of chemical compounds against the relevant kinase of interest, the Caliper LifeSciences electrophoretic mobility shift technology platform is utilized. Fluorescently labeled substrate peptide is incubated in the presence dosed levels of compounds, a set concentration of kinase and of ATP, so that a reflective proportion of the peptide is phosphorylated. At the end of the reaction, the mix of phosphorylated (product) and non-phosphorylated (substrate) peptides are passed through the microfluidic system of the Caliper LabChip® EZ Reader II, under an applied potential difference. The presence of the phosphate group on the product peptide provides a difference in mass and charge between the product peptide and the substrate peptide, resulting in a separation of the substrate and product pools in the sample. As the pools pass the LEDS within the instrument, these pools are detected and resolved as separate peaks. The ratio between these peaks therefore reflects the activity of the chemical matter at that concentration in that well, under those conditions.
The reaction was stopped by the addition of 70 ul of Stop buffer (100 mM HEPES pH 7.5, 0.015% Brij 35, 35 mM EDTA and 0.2% of Coating Reagent 3 (Caliper Lifesciences)). The plate was then read on a Caliper LabChip® EZ Reader II (protocol settings: —1.9 psi, upstream voltage—700, downstream voltage—3000, post sample sip 35 s).

For a further assay, the target named is T2, wild type FGFR-1 (Homo sapiens, UniProt P11362).
T2 construct: purchased Carna Biosciences, Inc
T2 sequence (P11362 22-822): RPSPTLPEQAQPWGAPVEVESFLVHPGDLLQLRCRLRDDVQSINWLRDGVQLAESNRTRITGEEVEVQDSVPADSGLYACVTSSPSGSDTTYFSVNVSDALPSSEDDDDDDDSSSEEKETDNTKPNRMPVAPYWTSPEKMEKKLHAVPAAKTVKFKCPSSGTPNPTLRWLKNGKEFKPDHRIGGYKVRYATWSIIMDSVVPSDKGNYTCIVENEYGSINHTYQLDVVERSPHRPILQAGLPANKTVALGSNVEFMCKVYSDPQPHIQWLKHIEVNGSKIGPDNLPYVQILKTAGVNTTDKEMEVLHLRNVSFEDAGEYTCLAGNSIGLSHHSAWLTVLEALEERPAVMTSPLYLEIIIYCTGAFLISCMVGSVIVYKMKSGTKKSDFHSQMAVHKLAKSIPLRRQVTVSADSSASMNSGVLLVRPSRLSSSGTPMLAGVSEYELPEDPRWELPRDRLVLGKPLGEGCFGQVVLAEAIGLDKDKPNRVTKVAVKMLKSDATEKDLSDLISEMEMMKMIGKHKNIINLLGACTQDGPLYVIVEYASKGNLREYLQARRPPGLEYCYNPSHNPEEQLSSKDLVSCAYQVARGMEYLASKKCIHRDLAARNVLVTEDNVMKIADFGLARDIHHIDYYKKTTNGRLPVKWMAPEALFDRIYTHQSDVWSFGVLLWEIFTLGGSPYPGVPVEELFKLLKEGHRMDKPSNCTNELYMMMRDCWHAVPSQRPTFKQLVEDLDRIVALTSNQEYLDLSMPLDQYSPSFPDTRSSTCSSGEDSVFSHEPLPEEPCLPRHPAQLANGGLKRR
Nature of the assay: FGFR-1 wild type assay at Km (Caliper mobility shift). Conditions: 400 uM ATP, 25 C, 90 minutes; read-out: FGFR1 IC50. Format: biochemical. The protocol: as §1
The reaction was stopped by the addition of 70 ul of Stop buffer (100 mM HEPES pH 7.5, 0.015% Brij 35, 35 mM EDTA and 0.2% of Coating Reagent 3 (Caliper Lifesciences)). The plate was then read on a Caliper EZReader 2 (protocol settings: —1.9 psi, upstream voltage—700, downstream voltage—3000, post sample sip 35 s).

T1 sequence (P22455 22-802): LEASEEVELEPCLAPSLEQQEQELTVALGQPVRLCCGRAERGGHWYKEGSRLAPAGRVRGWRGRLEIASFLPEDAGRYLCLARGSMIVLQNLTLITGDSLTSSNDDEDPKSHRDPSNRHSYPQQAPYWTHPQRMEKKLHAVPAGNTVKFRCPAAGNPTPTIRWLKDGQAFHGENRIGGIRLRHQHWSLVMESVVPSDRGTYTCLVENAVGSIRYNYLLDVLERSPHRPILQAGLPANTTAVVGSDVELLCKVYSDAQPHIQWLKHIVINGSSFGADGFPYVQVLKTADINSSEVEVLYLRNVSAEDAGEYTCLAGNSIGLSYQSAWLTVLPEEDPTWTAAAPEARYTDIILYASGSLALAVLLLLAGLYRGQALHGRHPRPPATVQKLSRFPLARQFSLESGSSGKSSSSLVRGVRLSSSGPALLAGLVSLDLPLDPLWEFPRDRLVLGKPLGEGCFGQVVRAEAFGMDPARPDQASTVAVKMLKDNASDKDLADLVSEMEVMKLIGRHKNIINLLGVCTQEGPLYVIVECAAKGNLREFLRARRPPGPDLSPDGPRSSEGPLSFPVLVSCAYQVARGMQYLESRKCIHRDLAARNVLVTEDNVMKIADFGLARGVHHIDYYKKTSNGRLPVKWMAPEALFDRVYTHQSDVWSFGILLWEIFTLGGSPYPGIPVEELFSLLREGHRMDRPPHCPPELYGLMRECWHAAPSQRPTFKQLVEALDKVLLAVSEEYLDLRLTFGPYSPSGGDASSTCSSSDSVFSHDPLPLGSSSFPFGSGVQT

Turning to `C=CC(=O)Nc1ccc(F)c(F)c1Nc1ncc2cc(-c3c(Cl)c(OC)cc(OC)c3Cl)ccc2n1` [COMPOUND 37], on wild type FGFR-4, the “Ratio FGFR1/FGFR4” value was “C (the ratio is ≧100 and <200)”. In addition, at wild type FGFR-1, the half-inhibitory concentration (IC50) was in the range of 100 to 1000 nM.
In the case of `C#CC(=O)NCc1cccn2c(-c3cc(NC(=O)NCC(F)(F)F)cc(OC(C)C)c3)cnc12` [COMPOUND 20, N-((3-(3-isopropoxy-5-(3-(2,2,2-trifluoroethyl)ureido)phenyl)imidazo[1,2-a]pyridin-8-yl)methyl)propiolamide], the IC50 at wild type FGFR-4 lay in the range of 10 to 100 nM.
`C=CC(=O)Nc1cccc(C)c1Nc1ncc2cc(-c3cc(C(N)=O)ccc3F)ccc2n1` [COMPOUND 9]: at wild type FGFR-4, the IC50 lay within 100 to 1000 nM; the “Ratio FGFR1/FGFR4” value was “D (the ratio is ≧50 and <100)”.
On to `C=CC(=O)Nc1cccc(C)c1Nc1ncc2nc(-c3c(Cl)c(OC)cc(OC)c3Cl)c(=O)n(C)c2n1` [COMPOUND 45, N-(2-((6-(2,6-dichloro-3,5-dimethoxyphenyl)-8-methyl-7-oxo-7,8-dihydropteridin-2-yl)amino)-3-methylphenyl)acrylamide], for which the “Ratio FGFR1/FGFR4” value on wild type FGFR-4 is “E (the ratio is ≧10 and <50)”.
For the compound `C=CC(=O)N(CCCCN(CC)CC)c1ncc2cc(-c3c(Cl)c(OC)cc(OC)c3Cl)c(NC(=O)NC(C)(C)C)nc2n1` [COMPOUND 55, N-(7-(3-(tert-butyl)ureido)-6-(2,6-dichloro-3,5-dimethoxyphenyl)pyrido[2,3-d]pyrimidin-2-yl)-N-(4-(diethylamino)butyl)acrylamide], the IC50 at wild type FGFR-1 was 10 to 100 nM.
`C=CC(=O)Nc1ccc(F)c(C)c1Nc1ncc2cc(-c3c(Cl)c(OC)cc(OC)c3Cl)ccc2n1` [COMPOUND 33]: on wild type FGFR-4, the concentration for half-maximal inhibition (IC50) lay within 10 to 100 nM.
On to `C=CC(=O)Nc1cccc(C)c1Nc1ncc2cc(-c3c(Cl)cccc3Cl)ccc2n1` [COMPOUND 13], for which, on wild type FGFR-4, the 50% inhibitory concentration (IC50) lay within 10 to 100 nM; the “Ratio FGFR1/FGFR4” value is “D (the ratio is ≧50 and <100)”.
Consider `C=CC(=O)Nc1cccc(C)c1Nc1ncc2cc(-c3c(Cl)c(OC)cc(OC)c3Cl)c(OC)cc2n1` [COMPOUND 42, N-(2-((6-(2,6-dichloro-3,5-dimethoxyphenyl)-7-methoxyquinazolin-2-yl)amino)-3-methylphenyl)acrylamide], for which the concentration for half-maximal inhibition (IC50) on wild type FGFR-1 lay within 10 to 100 nM.
Same read-out and setting: as for `C=CC(=O)Nc1cccc(C)c1Nc1ncc2cc(-c3c(Cl)c(OC)cc(OC)c3Cl)c(=O)n(C)c2n1` [COMPOUND 43, N-(2-((6-(2,6-dichloro-3,5-dimethoxyphenyl)-8-methyl-7-oxo-7,8-dihydropyrido[2,3-d]pyrimidin-2-yl)amino)-3-methylphenyl)acrylamide], the figure is 100 to 1000 nM.
With `C=CC(=O)N(C)c1ncc2c(n1)N(C)C(=O)N(c1cc(OC)cc(OC)c1)C2` [COMPOUND 5], the IC50 on wild type FGFR-4 is 10 to 100 nM.
As to `C=CC(=O)N(C)c1ncc2cc(-c3c(Cl)cccc3Cl)ccc2n1` [COMPOUND 2], on wild type FGFR-4, the IC50 is 100 to 1000 nM; the “Ratio FGFR1/FGFR4” value is “D (the ratio is ≧50 and <100)”.
Regarding `C=CC(=O)Nc1ccccc1Nc1ncc2cc(-c3c(Cl)c(OC)cc(OC)c3Cl)c(=O)n(C)c2c1C` [COMPOUND 40, N-(2-((3-(2,6-dichloro-3,5-dimethoxyphenyl)-1,8-dimethyl-2-oxo-1,2-dihydro-1,6-naphthyridin-7-yl)amino)phenyl)acrylamide], the 50% inhibitory concentration (IC50) on wild type FGFR-4 was in the range of 100 to 1000 nM.
On the same count and under the same terms, as for `C=CC(=O)Nc1cccc(C)c1Nc1ncc(C#Cc2cc(OC)cc(OC)c2)cn1` [COMPOUND 6, N-(2-((5-((3,5-dimethoxyphenyl)ethynyl)pyrimidin-2-yl)amino)-3-methylphenyl)acrylamide], the figure is 100 to 1000 nM.
Take `C=CC(=O)Nc1cccc(C)c1Nc1ncc2cc(-c3c(Cl)c(OC)cc(OC)c3Cl)cc(F)c2n1` [COMPOUND 34, N-(2-((6-(2,6-dichloro-3,5-dimethoxyphenyl)-8-fluoroquinazolin-2-yl)amino)-3-methylphenyl)acrylamide]: the half-inhibitory concentration (IC50) on wild type FGFR-1 lay in the range of 100 to 1000 nM.
On to `C=CC(=O)N(C)c1ncc2cc(-c3cc(OC)cc(OC)c3)ccc2n1` [COMPOUND 1], for which the “Ratio FGFR1/FGFR4” value on wild type FGFR-4 is “C (the ratio is ≧100 and <200)”.
With `C=CC(=O)Nc1ccccc1-c1ccn2c(-c3cccc(NC(=O)NCC(F)(F)F)c3)cnc2c1` [COMPOUND 21, N-(2-(3-(3-(3-(2,2,2-trifluoroethyl)ureido)phenyl)imidazo[1,2-a]pyridin-7-yl)phenyl)acrylamide], on wild type FGFR-4, the IC50 is 100 to 1000 nM; the “Ratio FGFR1/FGFR4” value was “B (the ratio is ≧200 and <500)”.
In the case of `C=CC(=O)Nc1cccc(C)c1Nc1cc2c(cn1)cc(-c1c(Cl)c(OC)cc(OC)c1Cl)c(=O)n2C` [COMPOUND 39], on wild type FGFR-4, the “Ratio FGFR1/FGFR4” value is “E (the ratio is ≧10 and <50)”.
For the compound `C=CC(=O)Nc1cccc(C)c1Nc1ncc2cc(-c3c(Cl)c(OC)cc(OC)c3Cl)cc(OC)c2n1` [COMPOUND 41], the IC50 on wild type FGFR-1 was 100 to 1000 nM.
Regarding `C=CC(=O)Nc1cc(F)cc(F)c1Nc1ncc2cc(-c3c(Cl)c(OC)cc(OC)c3Cl)ccc2n1` [COMPOUND 36], on wild type FGFR-4, the IC50 is 100 to 1000 nM; the “Ratio FGFR1/FGFR4” value is “B (the ratio is ≧200 and <500)”.
For the compound `C=CC(=O)Nc1ccccc1Nc1cc2c(cn1)cc(-c1cc(OC)cc(OC)c1)c(=O)n2C` [COMPOUND 15], on wild type FGFR-4, the IC50 was in the range of 10 to 100 nM; the “Ratio FGFR1/FGFR4” value was “B (the ratio is ≧200 and <500)”.
As to `C=CC(=O)Nc1cccc(C)c1Oc1ncc2cc(-c3c(Cl)c(OC)cc(OC)c3Cl)ccc2n1` [COMPOUND 25A], at wild type FGFR-4, the IC50 lay within 100 to 1000 nM; the “Ratio FGFR1/FGFR4” value was “D (the ratio is ≧50 and <100)”.
In the case of `C=CC(=O)Nc1ccccc1Nc1ncc(Cl)c(N2CCN(C(=O)Nc3cccc(C(F)(F)F)c3)CC2)n1` [COMPOUND 50, 4-(2-((2-acrylamidophenyl)amino)-5-chloropyrimidin-4-yl)-N-(3-(trifluoromethyl)phenyl)piperazine-1-carboxamide], the IC50 on wild type FGFR-4 lay within 100 to 1000 nM.
On to `C=C(C)C(=O)Nc1cccc(C)c1Nc1ncc2cc(-c3c(Cl)c(OC)cc(OC)c3Cl)ccc2n1` [COMPOUND 29], for which the IC50 on wild type FGFR-1 fell in the range of 100 to 1000 nM.
Regarding `C=CC(=O)Nc1ccccc1Nc1cc2nc(NC(=O)NC(C)(C)C)c(-c3cc(OC)cc(OC)c3)cc2cn1` [COMPOUND 44], at wild type FGFR-4, the IC50 was 100 to 1000 nM; the “Ratio FGFR1/FGFR4” value is “E (the ratio is ≧10 and <50)”.
Regarding `C=CC(=O)Nc1cc(C(=O)NC2CCN(C)CC2)ccc1Nc1ncc(C)c(N2CCN(C(=O)Nc3ccc(C#N)cc3)CC2)n1` [COMPOUND 54, 4-(2-((2-acrylamido-4-((1-methylpiperidin-4-yl)carbamoyl)phenyl)amino)-5-methylpyrimidin-4-yl)-N-(4-cyanophenyl)piperazine-1-carboxamide], the IC50 on wild type FGFR-4 is 10 to 100 nM.
For the compound `C=CC(=O)Nc1cccc(C)c1Nc1ncc2cc(-c3c(Cl)cccc3Cl)c(=O)n(C)c2n1` [COMPOUND 22], on wild type FGFR-4, the half-inhibitory concentration (IC50) lay within 10 to 100 nM; the “Ratio FGFR1/FGFR4” value is “B (the ratio is ≧200 and <500)”.
For `C=CC(=O)Nc1cccc(OC)c1Nc1ncc2cc(-c3c(Cl)c(OC)cc(OC)c3Cl)ccc2n1` [COMPOUND 30, N-(2-((6-(2,6-dichloro-3,5-dimethoxyphenyl)quinazolin-2-yl)amino)-3-methoxyphenyl)acrylamide], on wild type FGFR-1, the IC50 is 100 to 1000 nM.
As to `C=CC(=O)Nc1cccc(C)c1Nc1ncc2cc(-c3c(Cl)ccc(OC)c3F)ccc2n1` [COMPOUND 17A], at wild type FGFR-4, the IC50 lay in the range of 10 to 100 nM; the “Ratio FGFR1/FGFR4” value is “E (the ratio is ≧10 and <50)”.
Regarding `C=CC(=O)Nc1ccccc1Nc1nccc(N2CCCC(NS(=O)(=O)CCC)C2)n1` (centres unmarked) [COMPOUND 11, N-(2-((4-(3-(propylsulfonamido)piperidin-1-yl)pyrimidin-2-yl)amino)phenyl)acrylamide], the IC50 at wild type FGFR-4 was 100 to 1000 nM.
In the case of `C=CC(=O)Nc1cccc(C)c1Nc1ncc2cc(-c3c(Cl)c(OC)cc(OC)c3Cl)cnc2n1` [COMPOUND 26, N-(2-((6-(2,6-dichloro-3,5-dimethoxyphenyl)pyrido[2,3-d]pyrimidin-2-yl)amino)-3-methylphenyl)acrylamide], the concentration for half-maximal inhibition (IC50) on wild type FGFR-1 lay in the range of 100 to 1000 nM.
As for `C=CC(=O)Nc1cc(F)cc(C)c1Nc1ncc2cc(-c3c(Cl)c(OC)cc(OC)c3Cl)ccc2n1` [COMPOUND 32], at wild type FGFR-4, the “Ratio FGFR1/FGFR4” value was “C (the ratio is ≧100 and <200)”.
In the case of `C=CC(=O)Nc1cc(Cl)cc(C)c1Nc1ncc2cc(-c3c(Cl)c(OC)cc(OC)c3Cl)ccc2n1` [COMPOUND 49], at wild type FGFR-4, the IC50 lay in the range of 10 to 100 nM.
With `C=CC(=O)Nc1cccc(C)c1Nc1ncc2cc(-c3cc(OC)cc(OC)c3)cnc2n1` [COMPOUND 10, N-(2-((6-(3,5-dimethoxyphenyl)pyrido[2,3-d]pyrimidin-2-yl)amino)-3-methylphenyl)acrylamide], the “Ratio FGFR1/FGFR4” value on wild type FGFR-4 was “E (the ratio is ≧10 and <50)”.
Take `C=CC(=O)Nc1cccc(C)c1Nc1ncc(C#Cc2c(Cl)c(OC)cc(OC)c2Cl)cn1` [COMPOUND 24, N-(2-((5-((2,6-dichloro-3,5-dimethoxyphenyl)ethynyl)pyrimidin-2-yl)amino)-3-methylphenyl)acrylamide]: the IC50 on wild type FGFR-4 was 10 to 100 nM.
`C=CC(=O)Nc1cccc(Cl)c1Nc1ncc2cc(-c3cc(C(N)=O)ccc3C)ccc2n1` [COMPOUND 17]: at wild type FGFR-4, the IC50 was in the range of 10 to 100 nM; the “Ratio FGFR1/FGFR4” value is “B (the ratio is ≧200 and <500)”.
